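Exposure lasted 48 hours, with cells grown in 96-well plates and compounds tested at five concentrations. GI50: concentration for 50% inhibition of growth.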 Activity calls are given as the source filed them. Rule as the data show it: active = GI50 up to about 1.1 µM and inactive = higher.
Columns and labels:
Experiment in all cases: inhibition of tumour cell growth, NCI panel, 48 h
[1] = system: HCT-116
[2] = system: HOP-18
[3] = system: NCI-H226
[4] = system: MOLT-4
[5] = system: XF498
[6] = system: Malme-3M
[7] = system: HOP-62
[8] = system: SN12C
[9] = system: SR
[10] = system: SK-MEL-28
[11] = system: DLD-1
[12] = system: 786-0
[13] = system: M14
[14] = system: KM12
[15] = system: OVCAR-8
[16] = system: TK-10
[17] = system: IGROV-1
[18] = system: A498
[19] = system: RXF 631
[20] = system: A549
[21] = system: EKVX
[22] = system: SK-MEL-5
[23] = system: OVCAR-3
[24] = system: K562
[25] = system: NCI-H522
[26] = system: SF-268
[27] = system: SK-OV-3
[28] = system: CAKI-1
[29] = system: LOX IMVI
[30] = system: NCI-H460
[31] = system: NCI-H23
[32] = system: SNB-78
[33] = system: U-251
[34] = system: HT-29
[35] = system: CCRF-CEM
[36] = system: SF-539
[37] = system: RPMI-8226
[38] = system: RXF 393
[39] = system: UO-31
[40] = system: SNB-19
[41] = system: ACHN
[42] = system: SK-MEL-2
[43] = system: HCC 2998
[44] = system: UACC-257
[45] = system: M19-MEL
[46] = system: DMS-273
[47] = system: COLO 205
[48] = system: SF-295
[49] = system: HOP-92
[50] = system: HCT-15
[51] = system: SW-620
[52] = system: OVCAR-4
[53] = system: OVCAR-5
[54] = system: HL-60
[55] = system: SNB-75
[56] = system: DMS-114
[57] = system: LXFL 529
[58] = system: UACC-62
[59] = system: KM-20L2

Question: What does the source list for `NNC(=O)/C(=C/c1cccc([N+](=O)[O-])c1)NC(=O)c1ccccc1`?
Answer: GI50 [1]: > 100 µM (inactive); GI50 [2]: > 100 µM (inactive); GI50 [3]: > 100 µM (inactive); GI50 [4]: > 100 µM (inactive); GI50 [5]: > 100 µM (inactive); GI50 [6]: > 100 µM (inactive); GI50 [7]: > 100 µM (inactive); GI50 [8]: > 100 µM (inactive); GI50 [9]: > 100 µM (inactive); GI50 [10]: > 100 µM (inactive); GI50 [11]: > 100 µM (inactive); GI50 [12]: > 100 µM (inactive); GI50 [13]: > 100 µM (inactive); GI50 [14]: > 100 µM (inactive); GI50 [15]: > 100 µM (inactive); GI50 [16]: > 100 µM (inactive); GI50 [17]: > 100 µM (inactive); GI50 [18]: > 100 µM (inactive); GI50 [19]: > 100 µM (inactive); GI50 [20]: > 100 µM (inactive); GI50 [21]: < 0.01 µM (active); GI50 [22]: > 100 µM (inactive); GI50 [23]: > 100 µM (inactive); GI50 [24]: > 100 µM (inactive); GI50 [25]: > 100 µM (inactive); GI50 [26]: > 100 µM (inactive); GI50 [27]: > 100 µM (inactive); GI50 [28]: > 100 µM (inactive); GI50 [29]: > 100 µM (inactive); GI50 [30]: > 100 µM (inactive); GI50 [31]: > 100 µM (inactive); GI50 [32]: > 100 µM (inactive); GI50 [33]: > 100 µM (inactive); GI50 [34]: > 100 µM (inactive); GI50 [35]: > 100 µM (inactive); GI50 [36]: > 100 µM (inactive); GI50 [37]: > 100 µM (inactive); GI50 [38]: > 100 µM (inactive); GI50 [39]: > 100 µM (inactive); GI50 [40]: > 100 µM (inactive); GI50 [41]: > 100 µM (inactive); GI50 [42]: > 100 µM (inactive); GI50 [43]: > 100 µM (inactive); GI50 [44]: > 100 µM (inactive); GI50 [45]: > 100 µM (inactive); GI50 [46]: > 100 µM (inactive); GI50 [47]: > 100 µM (inactive); GI50 [48]: > 100 µM (inactive); GI50 [49]: > 100 µM (inactive); GI50 [50]: > 100 µM; GI50 [51]: > 100 µM (inactive); GI50 [52]: > 100 µM (inactive); GI50 [53]: 77.3 µM (inactive); GI50 [54]: > 100 µM (inactive); GI50 [55]: > 100 µM (inactive); GI50 [56]: > 100 µM (inactive); GI50 [57]: > 100 µM (inactive)

Question: `CS(=O)(=O)OC1CCC2(C#N)CCC1C2=O` (stereo not drawn) was tested. Which GI50 [1] did it give?
Answer: > 100 µM (inactive)

Question: What about the GI50 [2] of the same molecule?
Answer: > 100 µM (inactive)

Question: What about the GI50 [3] of the same molecule?
Answer: > 100 µM (inactive)

Question: What about the GI50 [4] of the same molecule?
Answer: > 100 µM (inactive)

Question: And the GI50 [5]?
Answer: > 100 µM (inactive)

Question: And the GI50 [6]?
Answer: > 100 µM (inactive)

Question: What about the GI50 [7] of the same molecule?
Answer: > 100 µM (inactive)

Question: What about the GI50 [8] of the same molecule?
Answer: > 100 µM (inactive)

Question: And the GI50 [9]?
Answer: 19.8 µM (inactive)

Question: What about the GI50 [10] of the same molecule?
Answer: > 100 µM (inactive)

Question: And the GI50 [11]?
Answer: > 100 µM (inactive)

Question: And the GI50 [12]?
Answer: 79.6 µM (inactive)

Question: And the GI50 [13]?
Answer: 71.3 µM (inactive)

Question: And the GI50 [14]?
Answer: > 100 µM (inactive)

Question: And the GI50 [15]?
Answer: > 100 µM (inactive)

Question: What about the GI50 [16] of the same molecule?
Answer: > 100 µM (inactive)

Question: And the GI50 [17]?
Answer: > 100 µM (inactive)

Question: And the GI50 [18]?
Answer: > 100 µM (inactive)

Question: What about the GI50 [19] of the same molecule?
Answer: > 100 µM (inactive)

Question: And the GI50 [20]?
Answer: > 100 µM (inactive)

Question: What about the GI50 [21] of the same molecule?
Answer: > 100 µM (inactive)

Question: What about the GI50 [22] of the same molecule?
Answer: > 100 µM (inactive)

Question: And the GI50 [23]?
Answer: > 100 µM (inactive)

Question: What about the GI50 [24] of the same molecule?
Answer: > 100 µM (inactive)

Question: What about the GI50 [25] of the same molecule?
Answer: 86.5 µM (inactive)

Question: And the GI50 [26]?
Answer: > 100 µM (inactive)

Question: And the GI50 [27]?
Answer: > 100 µM (inactive)

Question: And the GI50 [28]?
Answer: > 100 µM (inactive)

Question: What about the GI50 [29] of the same molecule?
Answer: > 100 µM (inactive)

Question: And the GI50 [30]?
Answer: 95.3 µM (inactive)

Question: And the GI50 [58]?
Answer: > 100 µM (inactive)

Question: And the GI50 [31]?
Answer: > 100 µM (inactive)

Question: What about the GI50 [32] of the same molecule?
Answer: > 100 µM (inactive)

Question: What about the GI50 [33] of the same molecule?
Answer: > 100 µM (inactive)

Question: And the GI50 [34]?
Answer: > 100 µM (inactive)

Question: And the GI50 [35]?
Answer: > 100 µM (inactive)

Question: And the GI50 [36]?
Answer: > 100 µM (inactive)

Question: And the GI50 [37]?
Answer: 21.9 µM (inactive)

Question: And the GI50 [38]?
Answer: > 100 µM (inactive)

Question: What about the GI50 [39] of the same molecule?
Answer: > 100 µM (inactive)

Question: What about the GI50 [40] of the same molecule?
Answer: > 100 µM (inactive)

Question: And the GI50 [41]?
Answer: > 100 µM (inactive)

Question: What about the GI50 [42] of the same molecule?
Answer: > 100 µM (inactive)

Question: What about the GI50 [59] of the same molecule?
Answer: 54.5 µM (inactive)

Question: And the GI50 [43]?
Answer: 46.1 µM (inactive)

Question: What about the GI50 [44] of the same molecule?
Answer: > 100 µM (inactive)

Question: And the GI50 [45]?
Answer: > 100 µM (inactive)

Question: What about the GI50 [46] of the same molecule?
Answer: 22.5 µM (inactive)

Question: What about the GI50 [47] of the same molecule?
Answer: 70.8 µM (inactive)

Question: What about the GI50 [48] of the same molecule?
Answer: > 100 µM (inactive)

Question: What about the GI50 [50] of the same molecule?
Answer: 12.1 µM

Question: And the GI50 [52]?
Answer: > 100 µM (inactive)

Question: What about the GI50 [53] of the same molecule?
Answer: > 100 µM (inactive)

Question: What about the GI50 [54] of the same molecule?
Answer: > 100 µM (inactive)

Question: And the GI50 [55]?
Answer: > 100 µM (inactive)

Question: What about the GI50 [57] of the same molecule?
Answer: > 100 µM (inactive)
